Assay results from patent publication US20190358181A1, “METHODS FOR AUTISM SPECTRUM DISORDER PHARMACOTHERAPY” (priority 2017, published 2019).

How the values were obtained:
Format in all cases: in vivo, human
[1] = Toxicity and safety monitoring, adverse events graded by CTCAE v4.03, SAT-1 trial
Description: Immediately before the infusion, height and weight were recorded, vital signs and capillary oxygen saturation (pulse oximetry) measured, physical and neurological examinations were conducted, and urine and blood for safety monitoring, pharmacology, and metabolomics was collected.
(§1) For the test dose, 50 mg of suramin hexasodium (Bayer Pharmaceuticals, Inc.) in 5 mL of saline (experimental arm, 5 patients), or 5 mL of saline only (control arm, 5 patients) were given by slow intravenous (IV) push over 3 minutes, followed by a 10 mL flush of saline. One hour after the test dose, vital signs were repeated and a single infusion of either suramin (20 mg/kg, minus the 50 mg test dose, in 50 mL, up to a maximum of 1 gram) or saline (50 mL IV) was given over 30 minutes, followed by a 10 mL flush of saline.
Suramin pharmacokinetics was assessed by serum isolation at the 4 time points immediately before and after the infusion. […] Unexpected and adverse events were recorded as they occurred and graded in severity according to the National Cancer Institute Common Terminology Criteria for Adverse Events v4.03 (CTCAE) scale. Additional pharmacovigilence monitoring included daily scripted phone calls in the first week, then 4 weekly calls until the exit examinations at 6 weeks.
(§2) Paired, non-parametric analysis was by Wilcoxon signed-rank sum test. Categorical data, such as the presence or absence of adverse events or historical symptoms was analyzed by Fisher's exact test. Two-way ANOVA (treatment×time), with Sidak post hoc correction, was used to analyze the 6-week summaries captured by the ADOS, CGI, and additional blood and urine safety analysis. Cohen's d—calculated as the mean difference of the paired, within-subject scores before and after treatment, divided by the standard deviation of the differences—was used as an estimate of effect size.

males with ASD [2] = assay: Autism Treatment Evaluation Checklist (ATEC), parent questionnaire, SAT-1 trial
Description: (§3) Two observational examinations were performed by a clinician at 3 time points: baseline (56±8 days; mean±SEM; before the infusion), 2-days post-infusion, and 6-weeks post-infusion. The two examiner-based metrics were the Autism Diagnostic Observation Schedule, 2nd edition (ADOS-2) with video and audio files recorded on 3 cameras, and the Expressive One Word Picture Vocabulary Testing (EOWPVT). Both of these observational metrics were administered by a trained and certified examiner using approved test materials. Three standardized questionnaires were completed by parents at 3 time points: baseline, 7-days post-infusion, and 6-weeks post-infusion. The three standardized questionnaires completed by parents were the 58-question Aberrant Behavior Checklist (ABC), the 75-item Autism Treatment Evaluation Checklist (ATEC), and the 33-item repetitive behavior questionnaire (RBQ). Parents were asked to complete these three instruments with reference to how their child behaved in the previous 7 days. At the end of the six weeks, we included a 24-question Clinical Global Impression (CGI) questionnaire (FIG. 16). In addition, parents were asked to list the 3 top behaviors or symptoms that they observed to be most changed over the previous 6-weeks. To minimize the misinterpretation of natural day-to-day variations in symptoms, parents were asked to mark a symptom as changed in the 6-week CGI only if it had lasted for at least 1 week.
as §1
(§4) Behavioral and neurological effects of treatment were assessed primarily by the examiner-based ADOS-2 protocol scores and standardized vocabulary testing (Expressive One Word Picture Vocabulary Test, EOWPVT), with secondary evaluation via parent-based assessments (Aberrant Behavior Checklist (ABC) scores, Autism Treatment Evaluation Checklist (ATEC) scores, Clinical Global Impression of Improvement (CGI) scores, and Repetitive Behavior Questionnaire (RBQ) scores). See General Methods for information related to behavioral test administration. Prior to the study, diagnosis of each of the enrolled participants was confirmed by ADOS-2 comparison scores of ≥7, and non-verbal IQ was tested by Leiter-3 examination. Examiner-based outcomes (ADOS and EOWPVT) were assessed at 2-days and 6-weeks after the infusion. Parent-based outcomes (ABC, ATEC, CGI, and RBQ) were assessed at 7-days and 6-weeks after the infusion. To minimize the effects of natural behavioral variability, the parents were instructed to mark a behavior as changed only if it was persistently changed for at least 1 week.
as §2, with “Each child was used as their own control to examine before and after treatment effects from Example 1 in a paired t-test design for the analysis of the ADOS, EOWPVT, ABC, ATEC, RBQ (FIGS. 4-11 show individual analyses), and blood and urine safety data (FIGS. 2 and 3 show individual analyses). Paired,” for “Paired,”

males with ASD [3] = assay: ADOS-2 (Autism Diagnostic Observation Schedule, 2nd edition), SAT-1 trial, single 20 mg/kg IV suramin infusion; details: for Difference from baseline (mean ± sd) / d (Cohen's d): 45 days after treatment
Description: as §3
All children met DSM-5 diagnostic criteria for autism spectrum disorders, and received confirmatory testing by Autism Diagnostic Observation Schedule, 2nd edition (ADOS-2) examination. Inclusion criteria included males, ages 4-17 years, living in the San Diego, Calif. region, with a confirmed diagnosis of ASD.
as §1, §4
Each child was used as their own control to examine before and after treatment effects from Example 1 in a paired t-test design for the analysis of the ADOS, EOWPVT, ABC, ATEC, RBQ (FIGS. 4-11 show individual analyses), and blood and urine safety data (FIGS. 2 and 3 show individual analyses). Paired, non-parametric analysis was by Wilcoxon signed-rank sum test. Categorical data, such as the presence or absence of adverse events or historical symptoms was analyzed by Fisher's exact test. […]

[4] = ATEC Language, 7 days after treatment
[5] = ATEC Language, 45 days after treatment
[6] = ATEC Sociability, 7 days after treatment
[7] = ATEC Total, 7 days after treatment

Cc1ccc(C(=O)Nc2ccc(S(=O)(=O)O)c3cc(S(=O)(=O)O)cc(S(=O)(=O)O)c23)cc1NC(=O)c1cccc(NC(=O)Nc2cccc(C(=O)Nc3cc(C(=O)Nc4ccc(S(=O)(=O)O)c5cc(S(=O)(=O)O)cc(S(=O)(=O)O)c45)ccc3C)c2)c1 [Suramin, suramin]
Adverse or Unanticipated Events, Suramin (N = 5) ([1]; Asymptomatic rash): 5
CTCAE Grade ([1]; Asymptomatic rash): 1
Adverse or Unanticipated Events, Suramin (N = 5) ([1]; Emesis x 1): 1^4
CTCAE Grade ([1]; Emesis x 1): 1
Adverse or Unanticipated Events, Suramin (N = 5) ([1]; Enuresis): 1^9
CTCAE Grade ([1]; Enuresis): 1
Adverse or Unanticipated Events, Suramin (N = 5) ([1]; Headache): 1
CTCAE Grade ([1]; Headache): 1
Adverse or Unanticipated Events, Suramin (N = 5) ([1]; Hyperactivity): 2^6
CTCAE Grade ([1]; Hyperactivity): 1
Adverse or Unanticipated Events, Suramin (N = 5) ([1]; Hypoglycemia): 1
CTCAE Grade ([1]; Hypoglycemia): 2
Adverse or Unanticipated Events, Suramin (N = 5) ([1]; Leukocytosis): 0
Adverse or Unanticipated Events, Suramin (N = 5) ([1]; Peripheral neuropathy): 0
Adverse or Unanticipated Events, Suramin (N = 5) ([1]; Total): 13
Adverse or Unanticipated Events, Suramin (N = 5) ([1]; Total, excluding rash): 8
Adverse or Unanticipated Events, Suramin (N = 5) ([1]; Uncomplicated URI): 2
CTCAE Grade ([1]; Uncomplicated URI): 1
serious toxicities (CTCAE grades 3-5) ([1]; extensive monitoring, single 20 mg/kg IV): no serious toxicities
extent of morbilliform rash ([1]; five children who received suramin): 1%-20%
time of rash peak after the infusion ([1]; in vivo): 1 days
time to spontaneous disappearance of rash ([1]; in vivo): 2 to 4 days
free cortisol, hemoglobin, white blood cell count (WBC), platelets, liver transaminases, creatinine, and urine protein ([1]; suramin vs placebo (FIGS. 2 and 3)): showed no differences
Difference from baseline (mean ± sd) (males with ASD [2]; [4]): −2.2 ± 1.5
d (Cohen's d) (males with ASD [2]; [4]): 1.4
Difference from baseline (mean ± sd) (males with ASD [2]; [5]): −2.0 ± 1.4
d (Cohen's d) (males with ASD [2]; [5]): 1.4
Difference from baseline (mean ± sd) (males with ASD [2]; [6]): −3.6 ± 2.6
d (Cohen's d) (males with ASD [2]; [6]): 1.4
Difference from baseline (mean ± sd) (males with ASD [2]; [7]): −10 ± 7.7
d (Cohen's d) (males with ASD [2]; [7]): 1.3
mean ADOS comparison score (males with ASD [3]; 6-weeks after suramin (8.6±0.4 at baseline)): 7.0±0.3
ADOS-2 comparison scores improved by an average of (mean±SD) (males with ASD [3]; 6-weeks, suramin treatment group, n=5): −1.6±0.55 points
2-day ADOS scores (males with ASD [3]; 2 days after suramin (FIG. 10A)): no change
Difference from baseline (mean ± sd) (males with ASD [3]; ADOS-2 Comparison): −1.6 ± 0.55
d (Cohen's d) (males with ASD [3]; ADOS-2 Comparison): 2.9
Difference from baseline (mean ± sd) (males with ASD [3]; ADOS-2 Raw): −4.6 ± 1.9
d (Cohen's d) (males with ASD [3]; ADOS-2 Raw): 2.4
Difference from baseline (mean ± sd) (males with ASD [3]; ADOS-2 Restr/Rep (restricted or repetitive behaviors)): −1.4 ± 0.89
d (Cohen's d) (males with ASD [3]; ADOS-2 Restr/Rep): 1.6
Difference from baseline (mean ± sd) (males with ASD [3]; ADOS-2 Social): −3.2 ± 1.9
d (Cohen's d) (males with ASD [3]; ADOS-2 Social): 1.7
